System: Hamster-Tracheen-Gewebe
Assay: Reversal of keratinization induced by vitamin A deficiency in hamster tracheal tissue (method of Clamon et al. / Sporn et al.)
Type: cell-based
Details: in 10^-8 molarer Lösung
Source text: Die erfindungsgemäßen Verbindungen sind in ihrer biologischen Aktivität den bekannten Retinsäureamiden der DE-OS 21 02 586 in etwa vergleichbar. Beispielsweise hebsowohl Retinsäure-N-(ß-hydroxy)-ethylamid als auch die erfindungsgemäßen Retinoide die durch Vitamin A-Hypovitamines induzierte Keratinisierung von Hamster-Tracheen-Gewebe noch in 10^-8 molarer Lösung vollständig auf. Die Methodik hierzu kann G.H. CLAMON et al Nature 250, 64 - 66 (1974) oder M.B. SPORN et al Nature 253, 47 - 50 (1975) entnommen werden. Die Keratinisierung wird als praekanzerotischer Prozes angesehen.

SMILES: CC1=C(/C=C/C(C)=C/C=C/C(C)=C/C(=O)NCCO)C(C)(C)CCC1 [Retinsäure-N-(ß-hydroxy)-ethylamid]
- Aufhebung der durch Vitamin A-Hypovitamines induzierten Keratinisierung von Hamster-Tracheen-Gewebe: vollständig

— patent EP0009776A1, “N-monohydroxypropylamides, N-dihydroxypropylamides and their acetonoides of all-E and 13-Z retinoic acid, process for their preparation and pharmaceutical compositions containing them” (BASF Aktiengesellschaft, priority 1978, dated 1980)
